We go through 5 molecules from patent publication US20090104637A1, “Method and Apparatus for Assaying Blood Clotting” (priority 2006, published 2009).

The target of one data set is T1, human α-thrombin (Homo sapiens, UniProt P00734).
T1 construct: A fluorogenic substrate for human α-thrombin
The note with it: 37° C., 50 mM Tris-HCl, pH 8.0, 0.15 M NaCl, 1 mM CaCl2, 1 mg/mL BSA; cited from earlier work.

Data set [1] concerns activated protein C (aPC). Put plainly: Activated protein C (aPC) production from Egg PC lipid coated surfaces with reconstituted thrombomodulin. Type of data set: biochemical. The text has this: It has been proposed that clot propagation is regulated by thrombomodulin (TM), an inhibitor of clotting located at on the walls of vessels near sites of vascular damage. It has been shown that clot propagation is reduced when TM is homogenously mixed into blood plasma. To mimic the localization of TM on vessel walls, TM was incorporated at the channel walls and tested if this TM was sufficient to stop clot propagation. The inventors incorporated TM into the inert phospholipid surface by forming inert lipid vesicles with reconstituted TM (lipid:TM) and by using the procedure described above to coat the channel walls.
Control experiments verified TM activity on the channel walls was on the same order of magnitude as previously measured for a monolayer of endothelial cells. Measured TM activities are shown in Table 2, which illustrates the quantification of activated protein C (aPC) production from Egg PC lipid coated surfaces with reconstituted thrombomodulin (TM). Corresponding velocities of clot propagation are shown.

In the next data set the test system is human blood plasma. Put plainly: Velocity of clot propagation in a microfluidic channel in the absence of flow. Type of data set: biochemical. The text has this:
To test the prediction that clots propagate as a reactive front with a constant velocity, the inventors used a microfluidic system to regulate and observe clotting in human blood plasma. This system was fabricated in poly(dimethylsiloxane) (PDMS).
FIG. 22 illustrates measurement of the propagation of a blood clot through a microfluidic channel in the absence of flow. Clots propagate with a similar velocity, Fv, in the absence and presence of a membrane-bound inhibitor of clotting, thrombomodulin (TM), on the channel wall. FIG. 22a is a schematic drawing of the procedure for initiating and monitoring clot propagation in a microfluidic device. […] FIG. 22b is a fluorescence microphotograph of a microfluidic device showing that lipids with reconstituted TF (lipid-TF) can be localized to a specific section of a channel in a background of inert lipids. FIG. 22c is a time-lapse fluorescence microphotographs showing position of the clot at 0, 40, and 80 min after plasma was introduced into the channel.
Clot initiation and propagation were spatially separated by patterning the walls of the same channel with different phospholipids (FIG. 22a). […] Clotting was monitored using bright-field microscopy to detect fibrin formation and fluorescence microscopy to detect thrombin-induced cleavage of a peptide-modified coumarin dye. […]

The subject of the next data set is donor's whole blood. Put plainly: On-chip APTT assay with argatroban titration, plug-based microfluidic device, whole blood, 23° C. It counts as biochemical, human. The note with it: APTT with argatroban / baseline APTT.
Data set [2] has as its system normal pooled plasma and donor plasma. Put plainly: On-chip APTT assay with argatroban titration, plug-based microfluidic device, plasma, 37° C. Type of data set: biochemical, human.
The conditions of data set [3]: cited from earlier work.
Data set [4] concerns normal pooled plasma (NPP). Put plainly: Initiation of clotting on patches of TF-reconstituted bilayers (timescale of reaction, threshold patch size). It counts as biochemical, human. Here is the method:
Reconstituting tissue factor (TF) to obtain clot-promoting vesicles. TF was reconstituted into mixed vesicles of DLPC/PS/Texas Reds DHPE (79.5/20/0.5 mole percents) at a concentration of 1.25 mg/mL in 1×HEPES-buffered saline/Ca^2+ buffer. For experiments in FIGS. 17, 18, and 19 the TF concentration in the vesicle solution was 0.40 nM (TF:lipid ratio of 2.5×10^−7). Assuming that all the TF was incorporated into the vesicles, the calculated surface concentration would be 0.08 fmol/cm^2. For experiments in Table 1, a final concentration of 0.16 nM of TF (TF:lipid ratio of 1×10^−7) was used. After addition of TF to the vesicle solution, the solution was incubated at 37° C. for 30 min and then stored at 12° C. The vesicles were used within 18 hrs.
Generating patches by backfilling clot-promoting lipids into the photo-removed regions of bilayer. To generate the clot-promoting patches, the patterned bilayers were backfilled with 30 μL of the TF-reconstituted vesicle solution (1.25 mg/mL vesicles in PBS buffer) and allowed to incubate for 4 min at room temperature. Phospholipid bilayers containing active TF have been prepared previously (Contino et al., 1994, Biophys. J. 67: 1113-1116 (1994)). Excess vesicles were removed by vigorous rinsing with a solution of NaCl (150 mM). Patterned bilayers were used immediately in clotting experiments.
Recalcifying the blood plasma samples and adding the thrombi-sensitive dye. All blood plasma samples were recalcified by adding a solution of CaCl2 containing the thrombin-sensitive fluorescent dye, Boc-Asp(OBzl)-Pro-Arg-MCA, (CaCl2, 40 mM; NaCl, 90 mM; and Boc-Asp(OBzl)-Pro-Arg-MCA, 0.4 mM). At the start of each experiment, the plasma and the solution containing CaCl2 were mixed 3:1 by volume. Clotting was detected by the appearance of fibrin using bright field microscopy, and by the appearance of fluorescence signal generated when 4-Methyl-Coumaryl-7-Amine (MCA) was cleaved from Boc-Asp(OBzl)-Pro-Arg-MCA by thrombin.
Inhibiting the factor XII pathway with corn trypsin inhibitor. For experiments measuring clot times for the TF pathway (all experiments using phospholipid bilayers and reconstituted TF), the factor XII (contact) pathway was inhibited with corn trypsin inhibitor (CTI). […]
The threshold patch size of donor platelet rich plasma and normal pooled plasma was measured at 24° C. and 37° C. Clot times were measured on patches presenting clotting stimuli (TF-reconstituted bilayers) in arrays containing patches of different sizes (Table 1). In a single experiment, the clot time on seven different patch sizes was measured. […] Clot time vs. patch size for platelet rich plasma (PRP) from donors was measured.

Marks after values point to notes of the source that are not given here.

As a reminder, the Km is the substrate concentration at which the rate is half of its maximum. In general, kcat refers to the number of substrate molecules converted per active site and unit of time at saturation. Take “t-butyloxycarbonyl-β-benzyl-L-aspartyl-L-prolyl-Larginine-4-methyl-coumaryl-7-amide”: on human α-thrombin, the Km is 11 µM and the kcat was 160 s⁻¹.
thrombomodulin [TM]: the aPC production in data set [1] (Glass, 37 ° C., TM:Egg PC ratio 1:7560) is recorded as 10 pmol min^−1 m^−2; in data set [1] (Glass, 37 ° C., TM:Egg PC ratio 1:75600) it was 0.3 pmol min^−1 m^−2; in data set [1] (PDMS, 25 ° C., TM:Egg PC ratio 1:7560), 5* pmol min^−1 m^−2; in data set [1] (PDMS, 25 ° C., TM:Egg PC ratio 1:75600), 10 pmol min^−1 m^−2. Further, in the data set on human blood plasma (Glass, 37 ° C., TM:Egg PC ratio 1:7560, 41 without TM), the “Front Velocity” value was 50 μm min^−1. Besides, in the data set with human blood plasma (PDMS, 25 ° C., TM:Egg PC ratio 1:75600 (lipid:TM=7.6×10^4), 20 without TM), the “Front Velocity (Fv)” value is recorded as 24 μm min^−1.
As for `CC1CNc2c(cccc2S(=O)(=O)N[C@@H](CCCNC(=N)N)C(=O)N2CC[C@@H](C)C[C@@H]2C(=O)O)C1` (some centres unmarked) [argatroban], the APTT ratio in the data set with donor's whole blood (argatroban 0.5 μg/mL) is listed as 2.3; with donor's whole blood (argatroban 1.0 μg/mL), 2.8; in data set [2] (argatroban 0.5 μg/mL) it was “about 2.1”; in data set [2] (argatroban 1.0 μg/mL), 2.7.
As usually defined, the pKa is the pH at which an ionisable group is half protonated. As to `O=Nc1ccccc1C(=O)O` [2-nitrosobenzoic acid], in data set [3], the pKa is on record as below 4.

B1: tissue factor (protein, UniProt P13726 33-295, looked up)
Tissue factor: SGTTNTVAAYNLTWKSTNFKTILEWEPKPVNQVYTVQISTKSGDWKSKCFYTTDTECDLTDEIVKDVKQTYLARVFSYPAGNVESTGSAGEPLYENSPEFTPYLETNLGQPTIQSFEQVGTKVNVTVEDERTLVRRNNTFLSLRDVFGKDLIYTLYYWKSSSSGKKTAKTNTNEFLIDVDKGENYCFSVQAVIPSRTVNRKSTDSPVECMGQEKGEFREIFYIIGAVVFVVIILVIILAISLHKCRKAGVGQSWKENSPLNVS
modifications: in phospholipid bilayers
notes: human recombinant tissue factor reconstituted in phospholipid bilayers, clotting stimulus
For the molecule B1, the “threshold patch size, ptr” value in data set [4] ([TF]=0.16 nM in vesicles) came to 160±32 μm; in data set [4] ([TF]=0.40 nM in vesicles) it was 75±25 μm. The “timescale of reaction, tR” value in data set [4] ([TF]=0.16 nM in vesicles) turned out to be 206 s; in data set [4] ([TF]=0.40 nM in vesicles), 30 s.
